Measurements as given in patent publication US8895585B2, “Nicotinamide derivative or salt thereof” (FUJIFILM Corporation, priority 2010, dated 2014).

The compounds below were run against T1, glutathione S-transferase (GST)-fused full-length human Syk protein (Homo sapiens, UniProt P43405) (assay: Syk enzyme assay). Settings: Syk enzyme assay, Test Example 1; read-out: IC50 of Syk-inhibitory activity.
T1 construct: (GST)-fused full-length human Syk protein; GST (glutathione S-transferase); purchased Carna Biosciences
Type: biochemical
How it was run: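 Baculovirus-expressed enzyme (1.2 ng) was preincubated with compound in HEPES pH 7.0/MgCl2/DTT buffer, 2 min shaking then 13 min at room temperature. Biotin-EDPDYEWPSA-NH2 (0.4 μM final) and ATP (27 μM final) were added for 40 min at room temperature. EDTA stop, streptavidin-XL/PT66-K TR-FRET at 615/665 nm gave IC50.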

Row | IC50 [nM] | SMILES
1 | 10 to 50 | CCOCCOCCn1cc2c(Nc3nc(NC4CCCCC4N)c(F)cc3C(N)=O)cccc2n1 (centres unmarked) [Example 002-035]
2 | 50 to 100 | NC(=O)c1cc(F)c(NC2CCCCC2N)nc1Nc1ccc2c(cnn2Cc2ccccc2)c1 (centres unmarked) [Example 002-036]
3 | 10 to 50 | CC(C)c1cncc(Nc2nc(NC3CCCCC3N)c(F)cc2C(N)=O)c1 (centres unmarked) [Example 002-039]
4 | 10 to 50 | Cc1ncc(Nc2nc(NC3CCCCC3N)c(F)cc2C(N)=O)cc1N1CCCC1 (centres unmarked) [Example 002-040]
5 | 10 to 50 | COCCn1cc2ccc(Nc3nc(NC4CCCCC4N)c(F)cc3C(N)=O)cc2n1 (centres unmarked) [Example 002-044]
6 | 10 to 50 | CCOCCOCCn1cc2ccc(Nc3nc(NC4CCCCC4N)c(F)cc3C(N)=O)cc2n1 (centres unmarked) [Example 002-045]
7 | < 10 | NC(=O)c1cc(F)c(NC2CCCCC2N)nc1Nc1ccc2cnn(CC3CC3)c2c1 (centres unmarked) [Example 002-046]
8 | 10 to 50 | NC(=O)c1cc(F)c(NC2CCCCC2N)nc1Nc1ccc2cnn(Cc3ccccc3)c2c1 (centres unmarked) [Example 002-047]
9 | 10 to 50 | CCOCCOCCn1ncc2ccc(Nc3nc(NC4CCCCC4N)c(F)cc3C(N)=O)cc21 (centres unmarked) [Example 002-049]
10 | 10 to 50 | NC(=O)c1cc(F)c(NC2CCCCC2N)nc1Nc1ccnc(C(F)(F)F)c1 (centres unmarked) [Example 002-050]
11 | < 10 | NC(=O)c1cc(F)c(NC2CCCCC2N)nc1Nc1ccnc(-c2ccc[nH]2)c1 (centres unmarked) [Example 002-051]
12 | < 10 | NC(=O)c1cc(F)c(NC2CCCCC2N)nc1Nc1ccnc(-c2ccccc2)c1 (centres unmarked) [Example 002-052]
13 | < 10 | CCOc1cc(Nc2nc(NC3CCCCC3N)c(F)cc2C(N)=O)cc(OCC)n1 (centres unmarked) [Example 002-061]
14 | < 10 | Cc1ccc(-c2cncc(Nc3nc(NC4CCCCC4N)c(F)cc3C(N)=O)c2)o1 (centres unmarked) [Example 002-062]
15 | < 10 | Cc1ccc(-c2cc(Nc3nc(NC4CCCCC4N)c(F)cc3C(N)=O)ccn2)o1 (centres unmarked) [Example 002-063]
16 | 100 to 1000 | NC(=O)c1cc(F)c(NC2CCCCC2N)nc1Nc1cccn2ccnc12 (centres unmarked) [Example 002-064]

Row | IC50 [nM] | SMILES
17 | < 10 | NC(=O)c1cc(F)c(NC2CCCCC2N)nc1Nc1cncc(-c2cn[nH]c2)c1 (centres unmarked) [Example 002-069]
18 | < 10 | NC(=O)c1cc(F)c(NC2CCCCC2N)nc1Nc1ccnc(-c2cn[nH]c2)c1 (centres unmarked) [Example 002-070]
19 | 10 to 50 | Cc1cc(Nc2nc(NC3CCCCC3N)c(F)cc2C(N)=O)cnc1N1CCOCC1 (centres unmarked) [Example 002-071]
20 | 10 to 50 | NC(=O)c1cc(F)c(NC2CCCCC2N)nc1Nc1cnc(N2CCOCC2)c(-c2ccoc2)c1 (centres unmarked) [Example 002-072]
21 | 50 to 100 | CN(C)c1ccc(Nc2nc(NC3CCCCC3N)c(F)cc2C(N)=O)cn1 (centres unmarked) [Example 002-074]
22 | 10 to 50 | NC(=O)c1cc(F)c(NC2CCCCC2N)nc1Nc1ccc(NCCO)nc1 (centres unmarked) [Example 002-075]
23 | 50 to 100 | COCCNc1ccc(Nc2nc(NC3CCCCC3N)c(F)cc2C(N)=O)cn1 (centres unmarked) [Example 002-076]
24 | 10 to 50 | NC(=O)c1cc(F)c(NC2CCCCC2N)nc1Nc1ccc(N2CCCC2)nc1 (centres unmarked) [Example 002-078]
25 | 50 to 100 | NC(=O)c1cc(F)c(NC2CCCCC2N)nc1Nc1ccc(OCCO)nc1 (centres unmarked) [Example 002-079]
26 | 10 to 50 | NC(=O)c1cc(F)c(NC2CCCCC2N)nc1Nc1ccc(NCCCN2CCOCC2)nc1 (centres unmarked) [Example 002-081]
27 | < 10 | CCCOc1cc(Nc2nc(NC3CCCCC3N)c(F)cc2C(N)=O)ccn1 (centres unmarked) [Example 002-082]
28 | < 10 | CC(C)COc1cc(Nc2nc(NC3CCCCC3N)c(F)cc2C(N)=O)ccn1 (centres unmarked) [Example 002-084]
29 | 10 to 50 | COC(C)CCOc1cc(Nc2nc(NC3CCCCC3N)c(F)cc2C(N)=O)ccn1 (centres unmarked) [Example 002-085]
30 | 10 to 50 | NC(=O)c1cc(F)c(NC2CCCCC2N)nc1Nc1ccnc(OCc2ccccc2)c1 (centres unmarked) [Example 002-086]
31 | 10 to 50 | NC(=O)c1cc(F)c(NC2CCCCC2N)nc1Nc1ccc2cc(Cl)cnc2c1 (centres unmarked) [Example 002-087]
32 | < 10 | COc1ccc2ccc(Nc3nc(NC4CCCCC4N)c(F)cc3C(N)=O)cc2n1 (centres unmarked) [Example 002-088]
